This is an account of results in patent US20240041876A1, “PHARMACEUTICAL COMPOSITION FOR PREVENTION OR TREATMENT OF DEGENERATIVE BRAIN DISEASES COMPRISING ABEMACICLIB AS ACTIVE INGREDIENT” (priority 2020, published 2024).

Data set [1] deals with BV2 microglia. In words: MTT assay, cytotoxicity to BV2 microglia. Format: cell-based. The settings on record: 0.1, 1, 5, 10, 25, or 50 μM; 24 hours in the absence of FBS. The protocol:
Cell viability was measured using the 3-(4,5-dimethylthiazol-2-yl)-2,5-diphenyltetrazolium bromide (MTT) assay. BV2 microglia were seeded in a 96-well plate and treated with various concentrations of abemaciclib mesylate (0.1, 1, 5, 10, 25, 50 μM) for 24 hours in the absence of FBS. Then, the cells were treated with 0.5 mg/ml MTT and incubated at 37° C. for 3 hours in a 5% CO2 incubator, and absorbance was measured at 580 nm.
To determine whether or not abemaciclib is cytotoxic to BV2 microglia, BV2 microglia were treated with abemaciclib at different concentrations (0.1, 1, 5, 10, 25, or 50 μM) and then MTT assay was performed.

In data set [2] the test system is 5×FAD mice. The data set can be described thus: Abemaciclib versus donepezil: cognitive function in 5×FAD mice (Y maze, NOR). It is filed as in vivo, mouse. Conditions: abemaciclib 30 mg/kg or donepezil 1 mg/kg intraperitoneal daily for 14 days.
Description: Then, percent alteration=(number of alterations/number of triads)×100 was obtained and used as a parameter of short-term memory. • Alteration: 1 point awarded when the mouse enters three different arms in turn • Triads: Total visits—2
The animal was allowed to start from the center of the box, and the time at which the animal was interested in the object was recorded for 5 minutes. After 24 hours, one of the two objects was replaced with fresh one, the times at which the mouse approached the old object and the fresh object were measured, and the preference for the new object was analyzed and used as a long-term memory analysis index.
Data set [3] deals with 5×FAD mice. The data set can be described thus: Abemaciclib versus donepezil: astrocyte activity in 5×FAD mice (anti-GFAP, anti-6E10). It is filed as in vivo, mouse. The settings on record: abemaciclib 30 mg/kg or donepezil 1 mg/kg intraperitoneal daily for 14 days.
Data set [4] concerns 5×FAD mice. In words: Abemaciclib versus donepezil: tau kinases phospho-GSK-3β and DYRK1A in 5×FAD mice. It is filed as in vivo, mouse. The settings on record: abemaciclib 30 mg/kg or donepezil 1 mg/kg intraperitoneal daily for 14 days. On the procedure:
F1-generation male 5×FAD mice (stock #34848-JAX, B6Cg-Tg APPSwF1Lon, PSEN1*M146L*L286V6799Vas/Mmjax) purchased from Jackson Laboratory were used. 5×FAD mice (3 months old) were bred in a sterile facility under 12-hour light/dark controlled conditions at an ambient temperature of 22° C. After daily administration of abemaciclib (30 mg/kg, intraperitoneal administration) or vehicle (10% DMSO) to 5×FAD mice for 14 days, Y maze test on day 15 and NOR test on day 16 to 17 were performed, followed by fluorescent tissue staining or Golgi staining.
Then, each brain section was subjected to immunohistochemical staining. Brain sections were rinsed in PBS and permeabilized for 1 hour at room temperature using PBS containing 0.2% Triton X-100 and 1% BSA. Then, the primary antibody was diluted in PBST (0.2% Triton X-100 in PBS) and reacted at 4° C. for 24 hours, and the next day, the tissue was washed three times with PBST, and then reacted with a secondary antibody bound with a fluorescent signal at room temperature for 2 hours. Then, the brain sections were washed three times with PBS, placed on slides, and observed under a fluorescence microscope.

For `CCN1CCN(Cc2ccc(Nc3ncc(F)c(-c4cc(F)c5nc(C)n(C(C)C)c5c4)n3)nc2)CC1` [abemaciclib], the “cytotoxicity to BV2 microglia (MTT assay)” value in data set [1] is given as “did not induce cytotoxicity”.

Turning to `COc1cc2c(cc1OC)C(=O)C(CC1CCN(Cc3ccccc3)CC1)C2` (stereo not shown) [donepezil], the “short-term memory (Y maze)” value in data set [2] (day 15) is listed as “improved”. Further, the “long-term memory (NOR test)” value in data set [2] (day 16-17) is “improved”. Moreover, the “number of astrocytes directly interacting with amyloid plaques” value in data set [3] is given as “reduced”. Moreover, in data set [4], the “expression of DYRK1A, a tau kinase, in the cortex” value is reported as “reduced”; the “expression of DYRK1A, a tau kinase, in the hippocampus” value was “reduced”; the “hippocampal phospho-GSK-3β levels” value is reported as “reduced”.
